Assay results as given in patent US12077503B2, “Substituted cyclic amides and their use as herbicides” (FMC CORPORATION, priority 2015, dated 2024).
Like-named read-outs stand apart in the source and are kept apart here. Values belong to the compound of their own block, whether it stands above or below them.

What was measured:
[1] = tested on: ragweed (common ragweed, Ambrosia elatior); assay: Test A postemergence; type: in vivo; conditions: Ambrosia artemisiifolia, post-emergence, 240 h; for pest or weed control at 125 g/ha: 125 g ai/ha; for pest or weed control at 500 g/ha: 500 g ai/ha
Method in brief: (§1)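 Preemergence soil spray on seeded pots or post-emergence spray on 1–2 leaf plants, in loam–sand blend. Greenhouse ~10 d. Visual rating 0–100 against untreated plants.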

[2] = tested on: barnyardgrass (Echinochloa crus-galli); assay: Test A postemergence; type: in vivo; conditions: Echinochloa crus-galli, post-emergence, 240 h; for pest or weed control at 125 g/ha: 125 g ai/ha; for pest or weed control at 500 g/ha: 500 g ai/ha
Method in brief: as §1

[3] = tested on: wheat (Triticum aestivum); assay: Test A postemergence; type: in vivo; conditions: Triticum aestivum, post-emergence, 240 h; for plant injury at 125 g/ha: 125 g ai/ha; for plant injury at 500 g/ha: 500 g ai/ha, visual injury, approx. 10 d
Method in brief: as §1

[4] = tested on: ryegrass, Italian (Italian ryegrass, Lolium multiflorum); assay: Test A postemergence; type: in vivo; conditions: Lolium multiflorum, post-emergence, 240 h; for pest or weed control at 125 g/ha: 125 g ai/ha; for pest or weed control at 500 g/ha: 500 g ai/ha
Method in brief: as §1

[5] = tested on: blackgrass (Alopecurus myosuroides); assay: Test A postemergence; type: in vivo; conditions: Alopecurus myosuroides, post-emergence, 240 h; for pest or weed control at 125 g/ha: 125 g ai/ha; for pest or weed control at 500 g/ha: 500 g ai/ha
Method in brief: as §1

[6] = tested on: giant foxtail (Setaria faberii); assay: Test A postemergence; type: in vivo; conditions: Setaria faberi, post-emergence, 240 h; for pest or weed control at 125 g/ha: 125 g ai/ha; for pest or weed control at 500 g/ha: 500 g ai/ha
Method in brief: as §1

[7] = postemergence, visual injury after approximately 10 d, 0 to 100 scale (0 no effect, 100 complete control), read-out: Plant response rating, Ragweed
[8] = postemergence, visual injury after approximately 10 d, 0 to 100 scale (0 no effect, 100 complete control), read-out: Plant response rating, Barnyardgrass
[9] = postemergence, visual injury after approximately 10 d, 0 to 100 scale (0 no effect, 100 complete control), read-out: Plant response rating, Wheat
[10] = postemergence, visual injury after approximately 10 d, 0 to 100 scale (0 no effect, 100 complete control), read-out: Plant response rating, Ryegrass, Italian
[11] = postemergence, visual injury after approximately 10 d, 0 to 100 scale (0 no effect, 100 complete control), read-out: Plant response rating, Blackgrass
[12] = postemergence, visual injury after approximately 10 d, 0 to 100 scale (0 no effect, 100 complete control), read-out: Plant response rating, Foxtail, Giant
[13] = Postemergence, visual rating about 10 d after treatment, read-out: Ragweed plant response rating (0 to 100 scale)
[14] = Postemergence, visual injury, 0 to 100 scale (0 no effect, 100 complete control), approx. 10 d, read-out: Plant response rating, Ragweed
[15] = Postemergence, visual rating about 10 d after treatment, read-out: Barnyardgrass plant response rating (0 to 100 scale, 0 no effect, 100 complete control)
[16] = Postemergence, visual injury, 0 to 100 scale (0 no effect, 100 complete control), approx. 10 d, read-out: Plant response rating, Barnyardgrass
[17] = Postemergence, visual rating about 10 d after treatment, read-out: Wheat plant response rating (0 to 100 scale)
[18] = Postemergence, 0 to 100 scale (0 no effect, 100 complete control), read-out: Plant response rating, Wheat
[19] = Postemergence, visual rating about 10 d after treatment, read-out: Ryegrass, Italian plant response rating (0 to 100 scale)
[20] = Postemergence, visual injury, 0 to 100 scale (0 no effect, 100 complete control), approx. 10 d, read-out: Plant response rating, Ryegrass, Italian
[21] = Postemergence, visual rating about 10 d after treatment, read-out: Blackgrass plant response rating (0 to 100 scale)
[22] = Postemergence, visual injury, 0 to 100 scale (0 no effect, 100 complete control), approx. 10 d, read-out: Plant response rating, Blackgrass
[23] = Postemergence, visual rating about 10 d after treatment, read-out: Foxtail, Giant plant response rating (0 to 100 scale)
[24] = Postemergence, visual injury, 0 to 100 scale (0 no effect, 100 complete control), approx. 10 d, read-out: Plant response rating, Foxtail, Giant

- melting point: 123 to 127 °C
SMILES: Cc1ccccc1NC(=O)[C@H]1C(=O)N(C)C[C@@H]1c1ccc(C(F)(F)F)cc1 [Compound 1239]
- pest or weed control at 125 g/ha ([1]; postemergence, visual injury vs untreated controls after approx. 10 d, 0 = no effect, 100 = complete control, read-out: Ragweed plant response rating (0 to 100 scale)): 20%
- pest or weed control at 500 g/ha ([1]; postemergence, 0 to 100 scale, 0 is no effect, 100 is complete control, read-out: Ragweed plant response rating): 60%
- pest or weed control at 125 g/ha ([2]; postemergence, visual injury vs untreated controls after approx. 10 d, 0 = no effect, 100 = complete control, read-out: Barnyardgrass plant response rating (0 to 100 scale)): 90%
- pest or weed control at 500 g/ha ([2]; postemergence, 0 to 100 scale, 0 is no effect, 100 is complete control, read-out: Barnyardgrass plant response rating): 80%
- plant injury at 125 g/ha ([3]; postemergence, visual injury vs untreated controls after approx. 10 d, 0 = no effect, 100 = complete control, read-out: Wheat plant response rating (0 to 100 scale)): 30%
- pest or weed control at 125 g/ha ([4]; postemergence, visual injury vs untreated controls after approx. 10 d, 0 = no effect, 100 = complete control, read-out: Ryegrass, Italian plant response rating (0 to 100 scale)): 20%
- pest or weed control at 500 g/ha ([4]; postemergence, 0 to 100 scale, 0 is no effect, 100 is complete control, read-out: Ryegrass, Italian plant response rating): 50%
- pest or weed control at 125 g/ha ([5]; postemergence, visual injury vs untreated controls after approx. 10 d, 0 = no effect, 100 = complete control, read-out: Blackgrass plant response rating (0 to 100 scale)): 70%
- pest or weed control at 500 g/ha ([5]; postemergence, 0 to 100 scale, 0 is no effect, 100 is complete control, read-out: Blackgrass plant response rating): 80%
- pest or weed control at 125 g/ha ([6]; postemergence, visual injury vs untreated controls after approx. 10 d, 0 = no effect, 100 = complete control, read-out: Foxtail, Giant plant response rating (0 to 100 scale)): 90%
- pest or weed control at 500 g/ha ([6]; postemergence, 0 to 100 scale, 0 is no effect, 100 is complete control, read-out: Foxtail, Giant plant response rating): 90%

- melting point: 69.5 to 77 °C
SMILES: CN1C[C@H](c2nccs2)[C@@H](C(=O)Nc2ccccc2F)C1=O [Compound 773]
- pest or weed control at 125 g/ha [1, 7]: 0%
- pest or weed control at 125 g/ha [2, 8]: 0%
- plant injury at 125 g/ha [3, 9]: 0%
- pest or weed control at 125 g/ha [4, 10]: 0%
- pest or weed control at 125 g/ha [5, 11]: 0%
- pest or weed control at 125 g/ha [6, 12]: 0%

- melting point: 146 to 150 °C
SMILES: O=C1NC[C@H](c2cc(C(F)(F)F)ccn2)[C@H]1C(=O)Nc1cccc(F)c1F (racemic) [Compound 1376]
- pest or weed control at 125 g/ha [1, 13]: 0%
- pest or weed control at 500 g/ha [1, 14]: 0%
- pest or weed control at 125 g/ha [2, 15]: 90%
- pest or weed control at 500 g/ha [2, 16]: 90%
- plant injury at 125 g/ha [3, 17]: 0%
- plant injury at 500 g/ha [3, 18]: 60%
- pest or weed control at 125 g/ha [4, 19]: 0%
- pest or weed control at 500 g/ha [4, 20]: 30%
- pest or weed control at 125 g/ha [5, 21]: 20%
- pest or weed control at 500 g/ha [5, 22]: 70%
- pest or weed control at 125 g/ha [6, 23]: 80%
- pest or weed control at 500 g/ha [6, 24]: 80%

More lines, now with the values behind:

SMILES: CN1C[C@H](c2nccs2)[C@@H](C(=O)Nc2cccc(F)c2F)C1=O [Compound 774]
- melting point: 133.9 to 140.7 °C
- pest or weed control at 125 g/ha [1, 7]: 0%
- pest or weed control at 125 g/ha [2, 8]: 0%
- plant injury at 125 g/ha [3, 9]: 0%
- pest or weed control at 125 g/ha [4, 10]: 0%
- pest or weed control at 125 g/ha [5, 11]: 0%
- pest or weed control at 125 g/ha [6, 12]: 0%

SMILES: CN1CC[C@H](c2cccc(C(F)(F)F)c2)[C@@H](C(=O)Nc2cccc(F)c2F)C1=O [Compound 1330]
- melting point: 54 to 57 °C
- pest or weed control at 125 g/ha [1, 13]: 0%
- pest or weed control at 500 g/ha [1, 14]: 20%
- pest or weed control at 125 g/ha [2, 15]: 90%
- pest or weed control at 500 g/ha [2, 16]: 90%
- plant injury at 125 g/ha [3, 17]: 50%
- plant injury at 500 g/ha [3, 18]: 70%
- pest or weed control at 125 g/ha [4, 19]: 0%
- pest or weed control at 500 g/ha [4, 20]: 20%
- pest or weed control at 125 g/ha [5, 21]: 50%
- pest or weed control at 500 g/ha [5, 22]: 70%
- pest or weed control at 125 g/ha [6, 23]: 90%
- pest or weed control at 500 g/ha [6, 24]: 90%

SMILES: C=CCOc1cccc(C2CN(C)C(=O)C2C(=O)Nc2ccccc2F)c1 (stereo not drawn) [Compound 1329]
- melting point: 81 to 84 °C
- pest or weed control at 125 g/ha [1, 13]: 0%
- pest or weed control at 500 g/ha [1, 14]: 0%
- pest or weed control at 125 g/ha [2, 15]: 90%
- pest or weed control at 500 g/ha [2, 16]: 90%
- plant injury at 125 g/ha [3, 17]: 0%
- plant injury at 500 g/ha [3, 18]: 20%
- pest or weed control at 125 g/ha [4, 19]: 0%
- pest or weed control at 500 g/ha [4, 20]: 50%
- pest or weed control at 125 g/ha [5, 21]: 20%
- pest or weed control at 500 g/ha [5, 22]: 60%
- pest or weed control at 125 g/ha [6, 23]: 90%
- pest or weed control at 500 g/ha [6, 24]: 90%

SMILES: CN1C[C@H](c2cc(F)cc(F)c2)[C@@H](C(=O)NC2CCc3ccccc32)C1=O (stereo partly drawn) [Compound 755]
- melting point: 135 to 139 °C
- pest or weed control at 125 g/ha [1, 7]: 0%
- pest or weed control at 125 g/ha [2, 8]: 0%
- plant injury at 125 g/ha [3, 9]: 0%
- pest or weed control at 125 g/ha [4, 10]: 0%
- pest or weed control at 125 g/ha [5, 11]: 0%
- pest or weed control at 125 g/ha [6, 12]: 0%
